Key:
[1] = test system: Human umbilical vein endothelial cells (HUVEC); test: OGD-R injury model, LDH detection, HUVEC; format: cell-based; details: OGD 4 hours, restoration 24 hours, 1, 3, 10 μM, prophylactic (1 hour before OGD) or therapeutic (at restoration)
Experimental: (§1) HUVEC cells were cultured in modified DMEM medium containing 10% fetal bovine serum. When the cells reached about 80% confluence, the cells were digested with 0.25% trypsin, and then pipetted evenly with modified DMEM containing 10% fetal bovine serum. The cell concentration was adjusted to 1×10^5 cells/mL, and the cells were seeded at 400 uL/well in a 24-well plate, and the experiment was carried out when the cells grew to about 70% confluence. RAOEC cells were cultured in high-glucose DMEM medium containing 10% fetal bovine serum, and the seeding conditions were the same as those for HUVECs.
(§2) The hypoxia workstation was set to have an oxygen concentration of 1% (1% O2, 5% CO2, 94% N2), a temperature of 37° C., and a humidity of 85%. A sugar-free DMEM medium was placed in the hypoxia workstation for pre-hypoxia for 3 hours. The medium in the culture plate was aspirated, and the plate was washed twice with preheated sugar-free DMEM medium, and 100 uL of sugar-free DMEM medium was added to each well. […]
(§3) At the end of the experiment, 50 uL of medium was taken from each well into a 96-well plate, and then cytotoxicity was detected according to the operating instructions of the LDH detection kit. The results were calculated as follows: […]

[2] = test system: rat vascular endothelial cells (RAOEC); test: OGD-R injury model, LDH detection, RAOEC; format: cell-based; details: OGD 4 hours, restoration 24 hours, 1, 3, 10 μM, prophylactic (1 hour before OGD) or therapeutic (at restoration)
Experimental: as §1, §2, §3

[3] = test system: LPS-induced acute lung injury; test: LPS-induced acute lung injury in rats (HE pathology, Smith score); format: in vivo, rat; details: for lung injury pathological score vs LPS model group: tail vein every 6 h x4, 24 h after LPS 6.4 mg/kg
Experimental: Animal grouping: 60 qualified rats with uniform body weight were selected and included in the experiment, and were randomly divided into 6 groups according to body weight, 10 rats/group. The animal grouping and the drug treatment dose of each group were as follows:
Drug administration: Test drugs were administered by tail vein at 0.3 mL/100 g body weight, hydrocortisone (25 mg/kg) was administered intraperitoneally at 0.5 mL/100 g body weight; the first administration for all the test agents were performed 0.5 h before LPS administration in the model. The test drug solvent and YC-6 were intravenously injected once every 6 h for a total of 4 injections, and the hydrocortisone (HC) group was intraperitoneally injected once every 12 h for a total of 2 injections.
After the rats were weighed and anesthetized by isoflurane, they were fixed in a supine position. The hair in the skin of the neck was removed, the skin of the neck was sterilized with 75% ethanol, and incised in the middle, after which the subcutaneous tissue was bluntly separated, and the upper trachea was exposed. 8 mg/mL LPS solution was injected into the trachea with a syringe, 0.2 mL/rat, and each rat was calculated as having body weight of […], and the dose was 6.4 mg/kg. Immediately after injection, the rats were erected, shaken, and rotated to distribute the LPS solution evenly in the lungs. The skin was sutured and disinfected with iodophor.
24 h after LPS injection, the animals were anesthetized by intraperitoneal injection of 20% […] solution at a volume of 6 mL/kg body weight. After the abdominal aorta was bled till the animal was dead, the thoracic cavity was exposed, and the lung tissue was collected. The left lung was fixed in 10% paraformaldehyde solution for 48 hours, after which the coronal plane of the left lung was cross-sectioned into two equal-width upper and lower parts, and then the lower half of the left lung was cross-sectioned into two equal-width parts according to the coronal plane. The sagittal plane of the upper half of the left lung and the coronal plane of the two lower half of the left lung were embedded in a paraffin block, sectioned and stained with hematoxylin-eosin (HE).
Tissue dehydration and paraffin embedding: The tissue was taken out of the fixative and successively immersed in 50% ethanol (30 min)-70% ethanol (overnight)-80% ethanol (30 min)-90% ethanol (30 min)-95% ethanol (30 min)-absolute ethanol (2 times, 30 min each time)-xylene (2 times, 5˜10 min each time, until the sample was completely transparent)-62° C. paraffin (3 times, 1 hour each time), followed by tissue embedding. Tissue paraffin sectioning: The thickness was 3 μm, the sections were dried on a microtome, and then placed in a 37° C. oven to dry overnight, and then used for HE staining. […]

[4] = 12, 40, 120 mg/kg/d, HE staining

C[C@@]12CCCC1C1C[C@@H](O)[C@]3(O)C[C@@H](O)CC[C@]3(C)C1CC2 (stereo partly drawn) [YC-6, 5α-androst-3β,5,6β-triol]
OGD-R-induced increase in LDH release [1]: significantly reduced the OGD-R-induced increase in LDH release in a dose-dependent manner
OGD-R-induced increase in LDH release [2]: significantly reduced the OGD-R-induced increase in LDH release in a dose-dependent manner
lung injury pathological score vs LPS model group ([3]; 12 mg/kg/d): significantly lower pathological scores
lung injury pathological score vs LPS model group ([3]; 40 mg/kg/d): significantly lower pathological scores
lung injury pathological score vs LPS model group ([3]; 120 mg/kg/d): significantly lower pathological scores
alveolar damage vs LPS model group [3, 4]: reduced alveolar damage
inflammatory cell infiltration in lung tissue vs LPS model group [3, 4]: reduced inflammatory cell infiltration
protective effect (pathological score) compared with 50 mg/kg/d hydrocortisone ([3]; low-dose group (12 mg/kg/d), P<0.05): significantly better protective effect

Reference: patent US12594282B2, “Use of small molecule compounds in the treatment of diseases mediated by lung epithelial cell injury and/or vascular endothelial cell injury” (Guangzhou Cellprotek Pharmaceutical Co., Ltd., priority 2020, dated 2026)
